{"source": "patent US20190314312A1", "about": "“COMBINATION THERAPY TO INCREASE ENDOGENOUS NITRIC OXIDE (NO) SYNTHESIS” (Yeda Research and Development Co. Ltd., priority 2016, published 2019)", "key": {"Ass1": {"tested_on": "Ass1", "experiment": "Immunohistochemistry staining of distal colon sections for Ass1", "assay_type": "in vivo, mouse", "conditions": "after colitis induction, fisetin treatment, FIG. 4A"}, "C57BL/6J.OlaaHsd mice": {"tested_on": "C57BL/6J.OlaaHsd mice", "experiment": "DSS-induced colitis, treatment with arginine, citrulline, NaNO2, fisetin or citrulline plus fisetin", "assay_type": "in vivo, mouse", "protocol": "Colitis was induced in Vav1^Cre:As1^f/f mice and CD11c^Cre:As1^f/f with 1.5% DSS and with 0.8% DSS in the Villin^Cre:As1^f/f (wt/vol), (Dextran Sodium Sulfate, MP Biomedicals; molecular weight 36,000-50,000 Da). The powder was dissolved in the drinking water for 6 days, followed by 5 days of supplementing regular water^20. Each group consisted of eight to ten, 8-10 weeks old, male mice. Experiments were repeated at least three times. “f/f”—flox/flox.\nColonoscopy was performed on days 7 and 11 of the experiment to monitor for severity of colitis. For the procedure, a high resolution mouse video endoscopic system was used, which consists of a miniature endoscope (scope 1.9 mm outer diameter), a xenon light source, a triple chip camera, and an air pump to achieve regulated inflation of the mouse bowel (Karl Storz, Tuttlingen, Germany). Mice were anesthetized by the administration of 4-5% of isoflurane in 100% oxygen at a rate of 0.2-0.5 L/min or by the administration of 100 mg/kg Ketamine/10 mg/kg Xylazine mixture IP, after which, the endoscope was introduced via the anus and the colon was carefully insufflated with an air pump before analysis of the colonic mucosa. The endoscopic procedure was viewed on a color monitor and digitally recorded on tape. Colitis was scored according to the Murine endoscopic index of colitis severity (MEICS), considering differences in the thickness of the bowel wall, changes in blood vessel integrity, mucosal surface, stool consistency or the presence of fibrin, scored each between 0 and 3. The cumulative score ranged from 0 (no signs of inflammation) to 15 (signs of severe inflammation)^21.\nMice were treated with 1% (wt/vol) DSS for 6 days, followed by administration of either arginine 1% (wt/vol) solution (Sigma-Aldrich, St. Louis, Mo., catalogue number A8094) in drinking water, citrulline 1% (wt/vol) (L-citrulline, Chem-Impex International), NaNO2 100 mg (Sigma-Aldrich, St. Louis, Mo., catalogue number S2252), or water as control for additional 6 days.\nFisetin was given by intraperitoneal (i.p.) injection (1 mg/animal) in 30 μL of DMSO twice weekly. The control group was injected with 30 μL of DMSO twice weekly. Each group consisted of ten, 8-weeks old, male mice. Experiments were repeated three times.\nHistopathology. On the day of sacrifice, colons were removed and their length was measured. Colon was fixed in 2.5% PFA solution overnight at 4° C., then embedded in paraffin, sectioned and stained with H&E. Tissues were examined in a blinded manner by a pathologist and scored on a 0-4 scale based on the parameters of inflammation severity^20."}, "control mice": {"tested_on": "control mice", "experiment": "DSS colitis (0.8% DSS) in control mice, fisetin or NaNO2", "assay_type": "in vivo, mouse", "conditions": "control (WT) mice, 0.8% DSS 5 days, fisetin 1 mg IP twice, FIGS. 4L-N", "protocol": "(§1) Colitis was induced on C57BL/6J.OlaaHsd mice. Mice were treated with 1% DSS for 6 days, followed by administration of either fiselin (1 mg in 30 μl DMSO IP, twice, in 3 days interval) citrulline 1% (wt/vol) solution in drinking water, the combination of both treatments or only DMSO as a control (30 μl DMSO IP, twice, in 3 days interval). […] FIGS. 4L-N—Colitis was induced on enterocytes CKO mice and compared to controls. Mice were treated with 0.8% DSS for 5 days, followed by administration with either NO donors; NaNO2 (100 mg/kg) or fisetin (1 mg in 30 μl DMSO IP, twice, in 3 days interval). […] Note that colitis severity is reduced by activating As1 in enterocytes, by citrulline and fisetin supplementation.\n(§2) Colitis was induced in Vav1^Cre:As1^f/f mice and CD11c^Cre:As1^f/f with 1.5% DSS and with 0.8% DSS in the Villin^Cre:As1^f/f (wt/vol), (Dextran Sodium Sulfate, MP Biomedicals; molecular weight 36,000-50,000 Da). […]\n(§3) Colonoscopy was performed on days 7 and 11 of the experiment to monitor for severity of colitis. […] The endoscopic procedure was viewed on a color monitor and digitally recorded on tape. Colitis was scored according to the Murine endoscopic index of colitis severity (MEICS), considering differences in the thickness of the bowel wall, changes in blood vessel integrity, mucosal surface, stool consistency or the presence of fibrin, scored each between 0 and 3. […]"}, "enterocytes CKO mice": {"tested_on": "enterocytes CKO mice", "experiment": "DSS colitis (0.8% DSS) in enterocytes CKO mice, fisetin or NaNO2", "assay_type": "in vivo, mouse", "conditions": "0.8% DSS 5 days, fisetin 1 mg IP twice, FIGS. 4L-N", "protocol": "as §1, §2, §3"}, "enterocytes": {"tested_on": "enterocytes", "experiment": "FACS analysis of colon epithelial cells (enterocytes) after colitis induction", "assay_type": "in vivo, mouse", "protocol": "Colon segment was flushed with cold PBS, longitudinally cut open and rinsed to remove residual luminal contents. Tissue was cut into 3- to 5-mm pieces and incubated in HBSS medium containing EDTA 0.5 M and Hepes 10 mM at 37° C. for 20 minutes, shaken at 180 rpm, to separate epithelial fraction. Supernatant was centrifuged at 4° C. at 500 g for 10 minutes. Recovered tissue was digested in HBSS medium with 2% fetal bovine serum (FBS), 0.05% collagenase II and 0.05% DNase I (Sigma) for 40 minutes. at 37° C., shaken at 180 rpm. LP cells were filtered through 65 μm mesh and centrifuged at 4° C. at 500 g for 10 minutes. The present inventors prepared single cell suspensions from mouse colon by enzymatic digestion and analyzed by polychromatic flow cytometry. Samples were stained with conjugated antibodies or matching isotype controls according to manufacturer's instructions. Data were acquired on an LSRII (BD Biosciences) or FACSCalibur instrument (Becton-Dickinson) with CellQuest software, with a MacsQuant instrument (Miltenyi, Bergisch Gladbach, Germany), and analyzed using BD FACSDiva 6 or FlowJo software (version 7.6.5, or version vX.0.7 Tree Star Inc) or MacsQuant. Colon cells were stained for 30 min at 4° C. in flow cytometry buffer (PBS, 10% FCS and 0.02% azide). For antigens that require intracellular staining (As1, iNOS and S-nitrosocystein), cell surface staining was followed by cell fixation and permeabilization with the Cytofix/Cytoperm kit (BD Biosciences) according to the manufacturer's instructions. For staining, the present inventors used a lineage cocktail of antibodies anti-CD45-APC, Anti-CD64-PE, Anti-CD11c-PB, Anti-326-APC cy7, Anti CD31-PE cy7 (all from BioLegend). After staining for cell surface antigens, intracellular NO was detected by incubation of cells for 15 min at 37° C. with 10 μM DAF-FM diacetate followed by extensive washing, according to the manufacturer's instructions (Molecular Probes). Staining without addition of the DAF-FM probe was considered to be the baseline for gating the positive population. As1 was detected using anti-As1-ALEXA FLUOR® 488 (BD Biosciences), iNOS using anti-iNOS followed by anti-rat 488 (Jackson ImmunoResearch), and nitrosylation using anti-S-nitrosocystein (from abcam) followed by anti-mouse 488 (Jackson ImmunoResearch)."}, "[1]": {"tested_on": "lipopolysaccharide (LPS)-stimulated mouse primary peritoneal macrophages", "conditions": "in vitro; cited from earlier work"}}, "note": "“Also recorded” adds a separate entry of the source.", "data": [{"smiles": "O=c1c(O)c(-c2ccc(O)c(O)c2)oc2cc(O)ccc12", "note": "[fisetin, 3,7, 3′, 4′-tetrahydroxyflavone]", "values": [{"measurement": "Ass1 expression in distal colon sections (enterocytes)", "setting": "Ass1", "result": "up regulation"}, {"measurement": "Ass1 expression in distal colon sections (enterocytes)", "setting": "Ass1; listed as fesitin", "result": "upregulated"}, {"measurement": "weight loss", "setting": "C57BL/6J.OlaaHsd mice; 1% DSS 6 days, then fisetin 1 mg IP twice, citrulline 1% in drinking water or both vs DMSO control, FIG. 4B", "result": "significant weight loss is documented in the control group compared to the treated mice"}, {"measurement": "colitis severity in all parameters", "setting": "C57BL/6J.OlaaHsd mice; fisetin vs control, FIG. 4A-E", "result": "improved colitis severity in all parameters"}, {"measurement": "colon length", "setting": "C57BL/6J.OlaaHsd mice; fisetin, citrulline or both vs DMSO control, FIG. 4D", "result": "significant longer"}, {"measurement": "histological score", "setting": "C57BL/6J.OlaaHsd mice; fisetin, citrulline or both vs DMSO control, FIG. 4E", "result": "significant reduction"}, {"measurement": "effect of treatment on colitis (survival, body weight gain, colitis score)", "setting": "control mice", "result": "improved colitis severity"}, {"measurement": "effect of treatment on colitis (survival, body weight gain, colitis score)", "setting": "control mice; listed as Fisetin", "result": "effective in the control group"}, {"measurement": "effect of treatment on colitis (survival, body weight gain, colitis score)", "setting": "enterocytes CKO mice", "result": "did not have an effect"}, {"measurement": "effect of treatment on colitis (survival, body weight gain, colitis score)", "setting": "enterocytes CKO mice; listed as Fisetin", "result": "not in the enterocytes CKO mice"}, {"measurement": "NO levels in enterocytes (colon epithelial cells)", "setting": "enterocytes; after colitis induction, treated vs control, FIGS. 3F-J, 4F-I", "result": "increased; also recorded: significant increase"}, {"measurement": "iNOS expression in enterocytes (colon cells)", "setting": "enterocytes; fisetin vs control after colitis induction, FIGS. 4J-K", "result": "increased; also recorded: significant increase"}, {"measurement": "ASL levels in enterocytes", "setting": "enterocytes; fisetin, FIGS. 4H-L", "result": "increase"}, {"measurement": "pro-inflammatory cytokine", "setting": "[1]", "result": "significantly reduces pro-inflammatory cytokine"}]}]}
